Biological target: Mu-type opioid receptor (Homo sapiens, UniProt P35372)
Assay: MOR agonists by imaging, SAR follow-up, image-based (AID 2352)

Chain of Mu-type opioid receptor (P35372 whole entry): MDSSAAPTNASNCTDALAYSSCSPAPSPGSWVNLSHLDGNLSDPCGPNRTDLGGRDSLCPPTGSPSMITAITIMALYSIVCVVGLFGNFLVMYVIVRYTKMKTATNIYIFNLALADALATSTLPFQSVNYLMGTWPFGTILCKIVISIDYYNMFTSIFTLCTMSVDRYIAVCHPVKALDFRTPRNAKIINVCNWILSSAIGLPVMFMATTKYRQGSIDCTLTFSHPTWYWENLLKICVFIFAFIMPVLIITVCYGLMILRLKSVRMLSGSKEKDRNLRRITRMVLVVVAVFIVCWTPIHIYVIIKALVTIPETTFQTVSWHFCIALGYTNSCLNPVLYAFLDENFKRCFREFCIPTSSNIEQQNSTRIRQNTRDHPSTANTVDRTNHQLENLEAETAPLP

| EC50 | Structure (SMILES) |
| --- | --- |
| > 32 µM | Oc1ccc(CN=Nc2ccnc3cc(Cl)ccc23)cc1O [(4Z)-4-[[2-(7-chloroquinolin-4-yl)hydrazinyl]methylidene]-2-hydroxycyclohexa-2,5-dien-1-one] |
| 25.3 µM | CCC(N=Nc1ccnc2cc(Cl)ccc12)c1ccc(O)cc1 (configuration not stated) [4-[1-[2-(7-chloroquinolin-4-yl)hydrazinyl]propylidene]cyclohexa-2,5-dien-1-one] |

— BindingDB's records for doi:10.7270/Q2NS0SBF (Burnham Center For Chemical Genomics, 2010)
